# Where a chain is given by its changes, count along the chain named. “And” between values parts separate entries of the source, which are not always exact repeats. Equal entries are not always repeated. Where two headings read alike, the source gives them in different places.
# Tests used:
# [1] = test system: rho-tag(20)-M4 chimeric mouse ORs; assay type: cell-based; settings: for Responding OR chimeras: 93 OR chimeras
# rho-tag(39)-Olfr49 [2] = biological target: T1, rho-tag(39)-Olfr49 (Mus musculus, UniProt Q9Z1V0); assay: Odorant-induced Ca2+ influx (FLIPR) in forskolin-pre-treated HeLa-Cx43/CNGA2 cells expressing rho-tag(39)-Olfr49; assay type: cell-based
# T1 construct: PCR-amplified the full-length coding regions of mouse Olfr49 (1-C6, NM010991); rho-tag(39): first 39 amino acids of bovine rhodopsin (N); expressed in transfected cells
# T1 sequence (Q9Z1V0 1-313): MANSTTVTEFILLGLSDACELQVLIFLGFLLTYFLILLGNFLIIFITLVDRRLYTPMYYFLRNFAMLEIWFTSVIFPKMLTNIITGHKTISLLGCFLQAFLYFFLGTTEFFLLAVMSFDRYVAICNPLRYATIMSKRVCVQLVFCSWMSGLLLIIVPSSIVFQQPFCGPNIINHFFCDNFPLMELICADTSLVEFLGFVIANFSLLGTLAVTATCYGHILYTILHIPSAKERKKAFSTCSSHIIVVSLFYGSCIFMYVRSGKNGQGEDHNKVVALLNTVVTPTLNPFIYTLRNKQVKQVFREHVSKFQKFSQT
# mOR267-1 = biological target: T2, mOR267-1 (Mus musculus, UniProt Q8VBW9); settings: chimera F2 and rho-tag(39)-full length OR, n=3
# T2 sequence (Q8VBW9 1-316): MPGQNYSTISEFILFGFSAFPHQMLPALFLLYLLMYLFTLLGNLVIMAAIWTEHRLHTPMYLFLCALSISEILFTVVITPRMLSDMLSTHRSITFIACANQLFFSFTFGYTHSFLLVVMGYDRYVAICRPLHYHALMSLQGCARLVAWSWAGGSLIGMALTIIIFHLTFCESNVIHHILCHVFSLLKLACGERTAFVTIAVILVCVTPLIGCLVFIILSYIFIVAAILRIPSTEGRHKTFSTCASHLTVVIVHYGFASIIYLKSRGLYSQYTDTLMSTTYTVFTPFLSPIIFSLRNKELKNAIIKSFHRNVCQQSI
# CNGA2 channel = biological target: T3, CNGA2 channel (Bos taurus, UniProt Q03041); assay: Inhibition of db-cAMP-activated CNGA2-dependent Ca2+ influx into HeLa-Cx43/CNGA2 cells; assay type: cell-based, bovine; settings: for Block of db-cAMP-induced Ca2+ influx by CNGA2: n=2
# T3 construct: expressed in transfected cells
# T3 sequence (Q03041 1-663): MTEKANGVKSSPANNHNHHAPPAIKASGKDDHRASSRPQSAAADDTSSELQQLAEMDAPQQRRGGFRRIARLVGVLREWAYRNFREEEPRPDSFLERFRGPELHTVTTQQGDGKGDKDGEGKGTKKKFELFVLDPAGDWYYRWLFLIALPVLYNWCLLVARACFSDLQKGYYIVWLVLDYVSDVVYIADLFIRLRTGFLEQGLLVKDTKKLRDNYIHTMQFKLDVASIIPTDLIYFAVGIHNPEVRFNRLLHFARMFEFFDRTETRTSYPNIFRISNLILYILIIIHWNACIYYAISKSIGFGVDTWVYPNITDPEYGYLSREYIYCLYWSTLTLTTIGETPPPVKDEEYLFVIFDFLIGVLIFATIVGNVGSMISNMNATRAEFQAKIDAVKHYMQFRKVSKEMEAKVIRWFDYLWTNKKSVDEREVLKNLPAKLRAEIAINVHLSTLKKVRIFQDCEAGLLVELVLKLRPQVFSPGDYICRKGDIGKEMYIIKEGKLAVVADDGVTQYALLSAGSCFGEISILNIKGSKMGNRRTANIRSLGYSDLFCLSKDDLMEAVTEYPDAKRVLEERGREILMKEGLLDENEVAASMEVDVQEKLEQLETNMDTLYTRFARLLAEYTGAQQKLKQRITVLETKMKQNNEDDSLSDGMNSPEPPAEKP
# Olfr49 = biological target: T4, Olfr49 (Mus musculus, UniProt Q9Z1V0); settings: n=3
# T4 sequence (Q9Z1V0 1-313): T1 sequence (Q9Z1V0 1-313)
# mOR261-10 = settings: 10 μM, chimera H1 and rho-tag(39)-full length OR, n=3
# [3] = biological target: T5, homomeric olfactory CNGA2 channel (Rattus norvegicus, UniProt Q00195); settings: Finn et al., 1998; cited from earlier work
# T5 construct: host or cells: HEK293 (in the cited work)
# T5 sequence (Q00195 1-664): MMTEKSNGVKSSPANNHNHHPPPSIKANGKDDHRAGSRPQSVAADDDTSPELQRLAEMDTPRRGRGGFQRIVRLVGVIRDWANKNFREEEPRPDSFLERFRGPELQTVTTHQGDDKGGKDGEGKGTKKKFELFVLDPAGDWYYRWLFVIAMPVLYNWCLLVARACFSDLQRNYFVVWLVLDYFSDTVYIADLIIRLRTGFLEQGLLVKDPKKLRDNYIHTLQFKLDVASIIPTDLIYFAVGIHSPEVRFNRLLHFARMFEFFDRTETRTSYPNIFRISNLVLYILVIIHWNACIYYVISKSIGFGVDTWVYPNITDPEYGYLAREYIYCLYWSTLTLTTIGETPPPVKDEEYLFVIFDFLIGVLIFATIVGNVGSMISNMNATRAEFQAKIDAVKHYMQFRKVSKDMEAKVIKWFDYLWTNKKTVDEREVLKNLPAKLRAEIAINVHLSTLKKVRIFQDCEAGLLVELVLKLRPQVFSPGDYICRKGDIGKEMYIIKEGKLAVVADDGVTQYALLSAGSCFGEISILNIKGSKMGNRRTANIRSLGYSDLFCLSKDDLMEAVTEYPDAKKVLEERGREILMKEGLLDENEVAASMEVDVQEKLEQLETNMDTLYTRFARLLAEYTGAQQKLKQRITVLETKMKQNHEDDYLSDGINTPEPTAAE
# rho-tag(39)-Olfr49 [4] = biological target: T1, rho-tag(39)-Olfr49; assay type: cell-based; settings: for Effect of pre-treatment on (−)citronellal-induced cAMP production: (−)citronellal 10 μM, thapsigargin 1 μM
# Method: After 40 hours, the cells were pre-incubated with IBMX (100 μM, 30 min) and exposed to (−)citronellal or isoproterenol (2 min). The pre-stimulation with forskolin was generally omitted.
# The inventors tested the possibility to follow an increase in cGMP by transfecting of the rat particular guanylyl cyclase type B (GC-B) into HeLa-Cx43/CNGA2 cells, for which the C type natriuretic peptide (CNP) is the known agonist (Lucas et al., 2000). […] The quantitative comparison of the relative potencies of the agonists by determining of their EC50 values is a standard method in the GPCR and agonist-classification.
# rho-tag(39)-Ors6 = assay type: cell-based, mouse; settings: 10 μM, thapsigargin pre-treated cells
# rho-tag(39)-Olfr41 = assay type: cell-based, mouse; settings: 10 μM, thapsigargin pre-treated cells
# Olfr43 = biological target: T6, Olfr43 (Mus musculus, UniProt Q7TRX1); settings: 1 μM, chimera A1 and rho-tag(39)-full length OR, n=3
# T6 sequence (Q7TRX1 1-313): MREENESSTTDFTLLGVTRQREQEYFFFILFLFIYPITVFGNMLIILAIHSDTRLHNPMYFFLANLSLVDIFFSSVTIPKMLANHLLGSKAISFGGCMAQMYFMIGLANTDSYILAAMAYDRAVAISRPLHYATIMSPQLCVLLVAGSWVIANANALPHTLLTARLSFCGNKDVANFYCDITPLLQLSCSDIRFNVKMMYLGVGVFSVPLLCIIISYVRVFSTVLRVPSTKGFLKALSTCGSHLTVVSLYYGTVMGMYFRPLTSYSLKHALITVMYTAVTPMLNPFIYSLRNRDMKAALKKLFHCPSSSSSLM
# rho-tag(39)-OR1A1 = biological target: T7, rho-tag(39)-OR1A1 (Homo sapiens, UniProt Q9P1Q5)
# T7 sequence (Q9P1Q5 1-309): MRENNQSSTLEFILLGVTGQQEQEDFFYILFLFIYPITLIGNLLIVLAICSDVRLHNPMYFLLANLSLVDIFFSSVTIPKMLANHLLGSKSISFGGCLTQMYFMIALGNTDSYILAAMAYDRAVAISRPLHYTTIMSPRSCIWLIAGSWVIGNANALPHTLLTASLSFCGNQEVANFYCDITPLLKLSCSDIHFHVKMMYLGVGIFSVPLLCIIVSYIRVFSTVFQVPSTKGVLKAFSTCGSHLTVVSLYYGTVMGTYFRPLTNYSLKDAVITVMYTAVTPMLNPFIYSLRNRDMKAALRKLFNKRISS
# From the text: (§1) In in situ RNA hybridisation-experiments, the inventors examined the gene expression of Olfr41, Olfr43, Olfr49, MOR261-10, MOR267-1, and Ors6 in OSN of the mouse OE.
# rho-tag(39)-LOC331758 = biological target: T8, rho-tag(39)-LOC331758 (Mus musculus, UniProt Q7TRX2)
# T8 sequence (Q7TRX2 1-313): T6 sequence (Q7TRX1 1-313) with T10I, G106S, A108G, P306H
# From the text: as §1
# rho-tag(39)-Olfr43 = biological target: T9, rho-tag(39)-Olfr43 (Mus musculus, UniProt Q7TRX1)
# T9 sequence (Q7TRX1 1-313): T6 sequence (Q7TRX1 1-313)
# From the text: as §1
# [5] = EC50 for odorant-induced Ca2+ influx, stably expressed rho-tag(39)-Olfr49, forskolin-pre-treated
compound,measurement,setting,value
CC(C)=CCCC(C)CCO (stereo not drawn) [beta-citronellol],Responding OR chimeras,[1]; odorant 10 μM,22%
same,EC50,rho-tag(39)-Olfr49 [2]; [5],32.8 ± 2.7 µM
same,Response in single cell Ca2+ imaging,mOR267-1; 10 μM,selectively responded
same,Block of db-cAMP-induced Ca2+ influx by CNGA2,CNGA2 channel; at up to 3 mM,did not block
same,Response in single cell Ca2+ imaging,Olfr49; 10 μM,selectively responded
same,Response in single cell Ca2+ imaging,mOR261-10,selectively responded
Nc1nc2c(ncn2[C@@H]2O[C@@H]3COP(=O)(O)O[C@H]3[C@H]2O)c(=O)[nH]1 [cGMP],EC50,[3],3 µM
same,EC50 for cGMP lower than the one for cAMP,[3],20 fold
C/C=C(/C)C(=O)O[C@H]1C(C)=C2[C@H]([C@@H]1OC(=O)CCCCCCC)[C@@](C)(OC(C)=O)C[C@H](OC(=O)CCC)[C@@]1(O)[C@H]2OC(=O)[C@@]1(C)O [thapsigargin],Effect of pre-treatment on (−)citronellal-induced cAMP production,rho-tag(39)-Olfr49 [4]; cells transfected with hG-alpha-olf,reduced
same,Effect of pre-treatment on (−)citronellal-induced cAMP production,"rho-tag(39)-Olfr49 [4]; cells without hG-alpha-olf, compared to cells without pre-treatment, forskolin 2.5 μM",significantly increased
O=C(O)CCCCCCCC(=O)O [nonandione acid],Ca2+ influx,rho-tag(39)-Ors6,induced a Ca2+ influx
CCCCCCCC=O [octanal],EC50,rho-tag(39)-Olfr49 [2]; [5],3.7 ± 0.1 µM
same,Block of db-cAMP-induced Ca2+ influx by CNGA2,CNGA2 channel; at up to 100 μM,did not block
CCCCCCC=O [heptanal],EC50,"rho-tag(39)-Olfr49 [2]; stably expressed rho-tag(39)-Olfr49, forskolin-pre-treated, read-out: EC50 for odorant-induced Ca2+ influx",6 ± 1 µM
same,Block of db-cAMP-induced Ca2+ influx by CNGA2,CNGA2 channel; at up to 100 μM,did not block
same,Ca2+ influx,rho-tag(39)-Olfr41,triggered the Ca2+ influx
"CC(C)=CCCC(C)CC=O (single isomer, unassigned; (+)) [(+)citronellal]",EC50,rho-tag(39)-Olfr49 [2]; [5],2.6 ± 0.4 µM
CC(C)=CCCC(C)CC(=O)O (centres unmarked) [citronellic acid],Response of the 93 OR chimeras,"[1]; up to 10 μM, n=2",None of the 93 OR chimeras responded
same,Block of db-cAMP-induced Ca2+ influx by CNGA2,CNGA2 channel; at up to 300 μM,did not block
"CC(C)=CCCC(C)CC=O (single isomer, unassigned; (-)) [(−)citronellal]",Responding OR chimeras,[1]; odorant 1 μM,3%
same,Responding OR chimeras,[1]; odorant 3 μM,43%
same,Percentage of responding ORs,"[1]; subgroup of 67 OR chimeras, odorant 1 μM, n=1",9%
same,EC50,"rho-tag(39)-Olfr49 [2]; EC50 for (−)citronellal-induced Ca2+ influx, transiently transfected rho-tag(39)-Olfr49, forskolin-pre-treated",3.9 µM and 4 µM
same,EC50,rho-tag(39)-Olfr49 [2]; [5],2.1 µM
same,Response in single cell Ca2+ imaging,mOR267-1; 1 μM,selectively responded
same,IC50,"CNGA2 channel; IC50 for block of db-cAMP-induced Ca2+ influx by CNGA2, db-cAMP-pre-treated HeLa-Cx43/CNGA2 cells, FLIPR",108 µM and 132 µM
same,EC50,"rho-tag(39)-Olfr49 [4]; EC50 for (−)citronellal-induced cAMP production, rho-tag(39)-Olfr49 stable cell line, n=2",0.4 µM and 0.49 µM
same,Response in single cell Ca2+ imaging,Olfr49; 1 μM,selectively responded
same,Response in single cell Ca2+ imaging,Olfr43,selectively responded
same,EC50,rho-tag(39)-OR1A1,2.2 ± 0.4 µM
same,EC50,rho-tag(39)-LOC331758,3.2 ± 0.8 µM
same,EC50,rho-tag(39)-Olfr43,2.1 ± 0.2 µM
